Measurements published in ChEMBL document CHEMBL2413072, “Synthesis and in vitro anticancer studies of novel C-2 arylidene congeners of lantadenes” (2013).

Experiments:
Format in all cases: functional
MDA-MB-231 = assay: Growth inhibition of human MDA-MB-231 cells assessed as cell growth at 10^-8 M by sulforhodamine B assay; settings: read-out: Activity
SF-268 [1] = assay: Growth inhibition of human SF268 cells assessed as cell growth at 10^-8 M by sulforhodamine B assay; settings: read-out: Activity
HCT-116 = assay: Growth inhibition of human HCT116 cells assessed as cell growth at 10^-8 M by sulforhodamine B assay; settings: read-out: Activity
RXF 393 = assay: Growth inhibition of human RXF393 cells assessed as cell growth at 10^-6 M by sulforhodamine B assay; settings: read-out: Activity
CAKI-1 [2] = assay: Growth inhibition of human CAKI-1 cells assessed as cell growth at 10^-7 M by sulforhodamine B assay; settings: read-out: Activity
A549 [3] = assay: Growth inhibition of human A549/ATCC cells assessed as cell growth at 10^-6 M by sulforhodamine B assay; settings: read-out: Activity
RPMI-8226 = assay: Growth inhibition of human RPMI8226 cells by sulforhodamine B assay
SK-MEL-2 = assay: Growth inhibition of human SK-MEL-2 cells assessed as cell growth at 10^-4 M by sulforhodamine B assay; settings: read-out: Activity
HOP-92 [4] = assay: Growth inhibition of human HOP92 cells assessed as cell growth at 10^-4 M by sulforhodamine B assay; settings: read-out: Activity
HT-29 = assay: Growth inhibition of human HT-29 cells assessed as cell growth at 10^-7 M by sulforhodamine B assay; settings: read-out: Activity
SK-MEL-5 [5] = assay: Growth inhibition of human SK-MEL-5 cells assessed as cell growth at 10^-7 M by sulforhodamine B assay; settings: read-out: Activity
T47D [6] = assay: Growth inhibition of human T47D cells by sulforhodamine B assay
SNB-19 = assay: Growth inhibition of human SNB19 cells assessed as cell growth at 10^-6 M by sulforhodamine B assay; settings: read-out: Activity
MCF7 [7] = assay: Growth inhibition of human MCF7 cells assessed as cell growth at 10^-7 M by sulforhodamine B assay; settings: read-out: Activity
K562 [8] = assay: Growth inhibition of human K562 cells assessed as cell growth at 10^-6 M by sulforhodamine B assay; settings: read-out: Activity
[9] = Growth inhibition of human HCC2998 cells by sulforhodamine B assay
HOP-62 [10] = assay: Growth inhibition of human HOP62 cells assessed as cell growth at 10^-8 M by sulforhodamine B assay; settings: read-out: Activity
A549 [11] = assay: Growth inhibition of human A549/ATCC cells by sulforhodamine B assay
SF-295 = assay: Growth inhibition of human SF295 cells assessed as cell growth at 10^-7 M by sulforhodamine B assay; settings: read-out: Activity
MOLT-4 = assay: Growth inhibition of human MOLT4 cells assessed as cell growth at 10^-7 M by sulforhodamine B assay; settings: read-out: Activity
HOP-62 [12] = assay: Growth inhibition of human HOP62 cells assessed as cell growth at 10^-6 M by sulforhodamine B assay; settings: read-out: Activity
A549 [13] = assay: Growth inhibition of human A549/ATCC cells assessed as cell growth at 10^-8 M by sulforhodamine B assay; settings: read-out: Activity
NCI-H522 = assay: Growth inhibition of human NCI-H522 cells assessed as cell growth at 10^-4 M by sulforhodamine B assay; settings: read-out: Activity
CAKI-1 [14] = assay: Growth inhibition of human CAKI-1 cells assessed as cell growth at 10^-4 M by sulforhodamine B assay; settings: read-out: Activity
SNB-75 = assay: Growth inhibition of human SNB75 cells assessed as cell growth at 10^-8 M by sulforhodamine B assay; settings: read-out: Activity
A549 [15] = assay: Growth inhibition of human A549/ATCC cells assessed as cell growth at 10^-4 M by sulforhodamine B assay; settings: read-out: Activity
SF-268 [16] = assay: Growth inhibition of human SF268 cells assessed as cell growth at 10^-4 M by sulforhodamine B assay; settings: read-out: Activity
SW-620 [17] = assay: Growth inhibition of human SW620 cells assessed as cell growth at 10^-8 M by sulforhodamine B assay; settings: read-out: Activity
SR = assay: Growth inhibition of human SR cells assessed as cell growth at 10^-8 M by sulforhodamine B assay; settings: read-out: Activity
ACHN = assay: Growth inhibition of human ACHN cells assessed as cell growth at 10^-8 M by sulforhodamine B assay; settings: read-out: Activity
U-251 = assay: Growth inhibition of human U251 cells assessed as cell growth at 10^-4 M by sulforhodamine B assay; settings: read-out: Activity
K562 [18] = assay: Growth inhibition of human K562 cells assessed as cell growth at 10^-4 M by sulforhodamine B assay; settings: read-out: Activity
SK-MEL-5 [19] = assay: Growth inhibition of human SK-MEL-5 cells assessed as cell growth at 10^-4 M by sulforhodamine B assay; settings: read-out: Activity
OVCAR-4 = assay: Growth inhibition of human OVCAR4 cells assessed as cell growth at 10^-7 M by sulforhodamine B assay; settings: read-out: Activity
T47D [20] = assay: Growth inhibition of human T47D cells assessed as cell growth at 10^-6 M by sulforhodamine B assay; settings: read-out: Activity
NCI-H23 = assay: Growth inhibition of human NCI-H23 cells by sulforhodamine B assay
MCF7 [21] = assay: Growth inhibition of human MCF7 cells assessed as cell growth at 10^-4 M by sulforhodamine B assay; settings: read-out: Activity
TK-10 = assay: Growth inhibition of human TK10 cells assessed as cell growth at 10^-7 M by sulforhodamine B assay; settings: read-out: Activity
[22] = Growth inhibition of human HCC2998 cells assessed as cell growth at 10^-7 M by sulforhodamine B assay; settings: HCC 2998, read-out: Activity
SW-620 [23] = assay: Growth inhibition of human SW620 cells by sulforhodamine B assay
SF-268 [24] = assay: Growth inhibition of human SF268 cells assessed as cell growth at 10^-6 M by sulforhodamine B assay; settings: read-out: Activity
T47D [25] = assay: Growth inhibition of human T47D cells assessed as cell growth at 10^-7 M by sulforhodamine B assay; settings: read-out: Activity
HOP-92 [26] = assay: Growth inhibition of human HOP92 cells assessed as cell growth at 10^-7 M by sulforhodamine B assay; settings: read-out: Activity
[27] = read-out: LC50 (the source's name)
[28] = read-out: pLC50 (the source's name) (converted)

CC1(C)C[C@@H](O)[C@]2(C(=O)O)CC[C@]3(C)C(=CC[C@@H]4[C@@]5(C)C/C(=C\C=C\c6ccccc6)C(=O)C(C)(C)[C@@H]5CC[C@]43C)[C@@H]2C1
growth at 0.01 µM (MDA-MB-231): 108%
growth at 0.01 µM (SF-268 [1]): 93%
growth at 0.01 µM (HCT-116): 100%
growth at 1 µM (RXF 393): 96%
growth at 0.1 µM (CAKI-1 [2]): 97%
growth at 1 µM (A549 [3]): 88%
GI50 (RPMI-8226; read-out: GI50): 2.58 µM
CC50 (RPMI-8226; [27]): > 100 µM
TGI (RPMI-8226; read-out: TGI): 7.96 µM
GI50 (RPMI-8226; read-out: pGI50 (converted)): 2.57 µM
CC50 (RPMI-8226; [28]): > 100 µM
TGI (RPMI-8226; read-out: pTGI (converted)): 7.94 µM
growth at 100 µM (SK-MEL-2): -72%
growth at 100 µM (HOP-92 [4]): -76%
growth at 0.1 µM (HT-29): 100%
growth at 0.1 µM (SK-MEL-5 [5]): 95%
GI50 (T47D [6]; read-out: GI50): 3.83 µM
CC50 (T47D [6]; [27]): > 100 µM
TGI (T47D [6]; read-out: TGI): 18.4 µM
GI50 (T47D [6]; read-out: pGI50 (converted)): 3.8 µM
CC50 (T47D [6]; [28]): > 100 µM
TGI (T47D [6]; read-out: pTGI (converted)): 18.2 µM
growth at 1 µM (SNB-19): 88%
growth at 0.1 µM (MCF7 [7]): 92%
growth at 1 µM (K562 [8]): 98%
GI50 ([9]; HCC 2998, read-out: GI50): 2.95 µM
CC50 ([9]; HCC 2998, read-out: LC50 (the source's name)): 27.9 µM
TGI ([9]; HCC 2998, read-out: TGI): 7.55 µM
GI50 ([9]; HCC 2998, read-out: pGI50 (converted)): 2.95 µM
CC50 ([9]; HCC 2998, read-out: pLC50 (the source's name) (converted)): 28.2 µM
TGI ([9]; HCC 2998, read-out: pTGI (converted)): 7.59 µM
growth at 0.01 µM (HOP-62 [10]): 93%
GI50 (A549 [11]; read-out: GI50): 2.8 µM
CC50 (A549 [11]; [27]): 63.4 µM
TGI (A549 [11]; read-out: TGI): 11.2 µM
GI50 (A549 [11]; read-out: pGI50 (converted)): 2.82 µM
CC50 (A549 [11]; [28]): 63.1 µM
TGI (A549 [11]; read-out: pTGI (converted)): 11.2 µM
growth at 0.1 µM (SF-295): 98%
growth at 0.1 µM (MOLT-4): 97%
growth at 1 µM (HOP-62 [12]): 97%
growth at 0.01 µM (A549 [13]): 98%
growth at 100 µM (NCI-H522): -86%
growth at 100 µM (CAKI-1 [14]): -49%
growth at 0.01 µM (SNB-75): 89%
growth at 100 µM (A549 [15]): -63%
growth at 100 µM (SF-268 [16]): -83%
growth at 0.01 µM (SW-620 [17]): 99%
growth at 0.01 µM (SR): 107%
growth at 0.01 µM (ACHN): 97%
growth at 100 µM (U-251): -79%
growth at 100 µM (K562 [18]): 1%
growth at 100 µM (SK-MEL-5 [19]): -99%
growth at 0.1 µM (OVCAR-4): 96%
growth at 1 µM (T47D [20]): 97%
GI50 (NCI-H23; read-out: GI50): 3.28 µM
CC50 (NCI-H23; [27]): 43.2 µM
TGI (NCI-H23; read-out: TGI): 12.3 µM
GI50 (NCI-H23; read-out: pGI50 (converted)): 3.31 µM
CC50 (NCI-H23; [28]): 43.7 µM
TGI (NCI-H23; read-out: pTGI (converted)): 12.3 µM
growth at 100 µM (MCF7 [21]): -68%
growth at 0.1 µM (TK-10): 93%
growth at 0.1 µM [22]: 97%
GI50 (SW-620 [23]; read-out: GI50): 3.39 µM
CC50 (SW-620 [23]; [27]): 78.8 µM
TGI (SW-620 [23]; read-out: TGI): 15.4 µM
GI50 (SW-620 [23]; read-out: pGI50 (converted)): 3.39 µM
CC50 (SW-620 [23]; [28]): 79.4 µM
TGI (SW-620 [23]; read-out: pTGI (converted)): 15.5 µM
growth at 1 µM (SF-268 [24]): 90%
growth at 0.1 µM (T47D [25]): 96%
growth at 0.1 µM (HOP-92 [26]): 90%
